Results reported in patent US11613525B2 (CTXT PTY LIMITED, priority 2018, dated 2023).
pEC50, pKd: −log10 of the molar value.

Tests used:
human STING (HAQ) [1] = molecular target: T1, human STING (HAQ) (Homo sapiens, UniProt Q86WV6, G230A/H232R/R293Q); assay: biochemical; assay type: binding; conditions: for DSF huSTING (HAQ) ΔTm (° C.): 1 μM protein, compound at 100 μM
Description: (§1) DSF monitors thermal unfolding of protein in the presence of a fluorescent dye and is typically performed using a real-time PCR instrument. The temperature at which a protein unfolds is measured by an increase in the fluorescence of a dye with affinity for hydrophobic parts of the protein that are gradually exposed during unfolding. The fluorescence of the dye is quenched in aqueous environments, but when the dye associates with hydrophobic sites on the unfolded protein, its fluorescence increases. The fluorescence intensity is plotted as a function of the temperature, generating a sigmoidal curve that can be described by a two-state transition. The inflection point of the transition curve (Tm) is calculated using simple equations such as that of Boltzman.
(§2) Sealed plates were then placed into a Bio-Rad CFX96/C1000 thermocycler and FRET scanning mode (λ^excitation of 490 nm and reads at λ^emission of 570 nm) was used to measure fluorescence intensity. […] The melting point (Tm) obtained for STING protein alone was subtracted from Tm obtained for protein incubated with ligand to generate ΔTm values listed in the table below.
(§3) These additional compounds were tested as described above, however the protein concentration was 2 μM.

huSTING (WT) [2] = molecular target: T2, huSTING (WT) (Homo sapiens (Human), UniProt Q86WV6, H232R); assay: Differential scanning fluorimetry (DSF), huSTING (WT); assay type: binding; conditions: read-out: DSF huSTING (WT) ΔTm (° C.)
Description: as §1, §2, §3
Target sequence in this assay (Q86WV6 other isoform, or with tags, fused parts or gaps, stated change not applied): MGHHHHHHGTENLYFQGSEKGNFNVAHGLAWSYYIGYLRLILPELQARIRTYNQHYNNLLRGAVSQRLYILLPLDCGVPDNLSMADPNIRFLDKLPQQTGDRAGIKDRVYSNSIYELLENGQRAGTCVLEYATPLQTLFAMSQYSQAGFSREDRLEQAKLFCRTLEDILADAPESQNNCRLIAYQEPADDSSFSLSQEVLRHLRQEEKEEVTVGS

huSTING (HAQ) = huSTING (HAQ) (Homo sapiens (Human), UniProt Q86WV6, G230A/H232R/R293Q/R71H); assay: THP-1 reporter cell line assay, THP-1 STING Lucia ISG cells; assay type: cell-based; conditions: THP-1 STING Lucia ISG cells; 24 h; top concentration 50 μM; read-out: Cellular EC50 huSTING (HAQ)
huSTING (WT) [3] = molecular target: T2, huSTING (WT); assay: THP-1 reporter cell line assay, THP-1-Dual KI-hSTING-R232 cells; assay type: cell-based; conditions: read-out: Cellular EC50 huSTING (WT)
Target sequence in this assay (Q86WV6 whole entry H232R): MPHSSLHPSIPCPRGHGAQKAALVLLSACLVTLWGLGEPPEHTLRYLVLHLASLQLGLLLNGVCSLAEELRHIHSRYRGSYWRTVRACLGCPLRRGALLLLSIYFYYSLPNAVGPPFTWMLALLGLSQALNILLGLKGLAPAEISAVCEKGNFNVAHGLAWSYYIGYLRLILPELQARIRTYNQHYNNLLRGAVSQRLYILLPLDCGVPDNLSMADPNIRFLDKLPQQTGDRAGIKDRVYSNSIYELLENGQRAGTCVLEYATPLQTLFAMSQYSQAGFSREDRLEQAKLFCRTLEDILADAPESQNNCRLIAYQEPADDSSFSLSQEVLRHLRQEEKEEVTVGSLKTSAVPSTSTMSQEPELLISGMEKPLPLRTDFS

human STING (HAQ) [4] = molecular target: T1, human STING (HAQ); conditions: read-out: SPR (HAQ) KD; 25° C.

Chain of huSTING (HAQ) (Q86WV6 whole entry R71H/G230A/H232R/R293Q): as the sequence (Q86WV6 whole entry H232R) above, with R71H, G230A, R293Q counted along it
T1 sequence (Q86WV6 whole entry G230A/H232R/R293Q, looked up): as the sequence (Q86WV6 whole entry H232R) above, with G230A, R293Q counted along it

Structure (SMILES)	DSF huSTING (HAQ) ΔTm (° C.) (human STING (HAQ) [1]) [°C]	ΔTm at 100 µM (huSTING (WT) [2]) [°C]	pEC50 (huSTING (HAQ))	pEC50 (huSTING (WT) [3])	pKd (human STING (HAQ) [4])	ΔTm at 100 µM (human STING (HAQ) [1]; read-out: DSF huSTING (HAQ) ΔTm (° C.)) [°C]
NC(=O)c1ccc(OCc2c(C(=O)O)sc3cccc(F)c23)cc1 [Example 1, 3-((4-Carbamoylphenoxy)methyl)-4-fluorobenzo[b]thiophene-2-carboxylic acid]	7.78	0.99	< 4.30	< 4.30	4.49	
NC(=O)c1ccc(OCc2c(C(=O)O)sc3ccccc23)cc1 [Example 6, 3-((4-Carbamoylphenoxy)methyl)benzo[b]thiophene-2-carboxylic acid]	3.33	-1.15	< 4.30	< 4.30	4.05	
NC(=O)c1ccc(OCc2c(C(=O)O)sc3cc(Cl)ccc23)cc1 [Example 10, 3-((4-carbamoylphenoxy)methyl)-6-chlorobenzo[b]thiophene-2-carboxylic acid]	1.7	-2.34	< 4.30	< 4.30	3.73	
NC(=O)c1ccc(OCc2c(C(=O)O)sc3c(Cl)cccc23)cc1 [Example 12, 3-((4-Carbamoylphenoxy)methyl)-7-chlorobenzo[b]thiophene-2-carboxylic acid]	9	3.29	< 4.30	< 4.30	5.23	
NC(=O)c1ccc(OCc2c(C(=O)O)sc3ccc(Cl)cc23)cc1 [Example 14, 3-((4-Carbamoylphenoxy)methyl)-5-chlorobenzo[b]thiophene-2-carboxylic acid]	0.09	-4.26	< 4.30	< 4.30	3.92	
NC(=O)c1ccc(OCc2c(C(=O)O)sc3ccc(F)c(F)c23)cc1 [Example 16, 3-((4-Carbamoylphenoxy)methyl)-4,5-difluorobenzo[b]thiophene-2-carboxylic acid]	10.12	3.49	< 4.30	< 4.30	5.66	
Cc1ccc2sc(C(=O)O)c(COc3ccc(C(N)=O)cc3)c2c1Cl [Example 18, 3-((4-Carbamoylphenoxy)methyl)-4-chloro-5-methylbenzo[b]thiophene-2-carboxylic acid]	6.29	-0.6	< 4.30	< 4.30	4.80	
NC(=O)c1ccc(OCc2c(C(=O)O)sc3cc(Cl)cc(F)c23)cc1 [Example 20, 3-((4-Carbamoylphenoxy)methyl)-6-chloro-4-fluorobenzo[b]thiophene-2-carboxylic acid]	5.83	-2.76	< 4.30	< 4.30	4.47	
NC(=O)c1ccc(OCc2c(C(=O)O)sc3cccc(Br)c23)cc1 [Example 22, 4-Bromo-3-((4-carbamoylphenoxy)methyl)benzo[b]thiophene-2-carboxylic acid]	17.08	7.61	< 4.30	4.39	6.12	
NC(=O)c1ccc(OCc2c(C(=O)O)sc3cccnc23)cc1 [Example 24, 3-((4-Carbamoylphenoxy)methyl)thieno[3,2-b]pyridine-2-carboxylic acid]		-0.35	< 4.30	< 4.30	< 2.00	0.6
NC(=O)c1ccc(OCc2c(C(=O)O)sc3cccc(Cl)c23)cc1F [Example 26, 3-((4-Carbamoyl-3-fluorophenoxy)methyl)-4-chlorobenzo[b]thiophene-2-carboxylic acid]	10.82	3.79	< 4.30	< 4.30	5.79	
NC(=O)c1c(F)cc(OCc2c(C(=O)O)sc3cccc(Cl)c23)cc1F [Example 28, 3-((4-Carbamoyl-3,5-difluorophenoxy)methyl)-4-chlorobenzo[b]thiophene-2-carboxylic acid]	6.93	1.19	< 4.30	< 4.30	4.96	
COc1cc(C(N)=O)ccc1OCc1c(C(=O)O)sc2cccc(Cl)c12 [Example 30, 3-((4-Carbamoyl-2-methoxyphenoxy)methyl)-4-chlorobenzo[b]thiophene-2-carboxylic acid]	5.4	-0.32	4.44	< 4.30	4.66	
NC(=O)c1ccc(OCc2c(C(=O)O)sc3cc(F)cc(F)c23)cc1 [Example 32, 3-((4-Carbamoylphenoxy)methyl)-4,6-difluorobenzo[b]thiophene-2-carboxylic acid]	7.23	0.63	< 4.30	< 4.30	5.11	
COc1cccc2sc(C(=O)O)c(COc3ccc(C(N)=O)cc3)c12 [Example 34, 3-((4-Carbamoylphenoxy)methyl)-4-methoxybenzo[b]thiophene-2-carboxylic acid]	10.07	3.76	< 4.30	< 4.30	5.61	
NC(=O)c1ccc(OCc2c(C(=O)O)sc3cccc(C(F)(F)F)c23)cc1 [Example 36, 3-((4-Carbamoylphenoxy)methyl)-4-(trifluoromethyl)benzo[b]thiophene-2-carboxylic acid]	12.31	5.96	< 4.30	< 4.30	5.87	
NC(=O)c1ccc(OCc2c(C(=O)O)sc3cccc(Cl)c23)c(Cl)c1 [Example 38, 3-((4-Carbamoyl-2-chlorophenoxy)methyl)-4-chlorobenzo[b]thiophene-2-carboxylic acid]	6.02	-1.4	< 4.30	< 4.30	4.79	
NC(=O)c1cc(Cl)c(OCc2c(C(=O)O)sc3cccc(Cl)c23)c(Cl)c1 [Example 40, 3-((4-Carbamoyl-2,6-dichlorophenoxy)methyl)-4-chlorobenzo[b]thiophene-2-carboxylic acid]	9.91	3.66	< 4.30	4.40	5.55	
N#Cc1cc(C(N)=O)ccc1OCc1c(C(=O)O)sc2cccc(Cl)c12 [Example 44, 3-((4-Carbamoyl-2-cyanophenoxy)methyl)-4-chlorobenzo[b]thiophene-2-carboxylic acid]	7.64	1.3			5.10	
NC(=O)c1ccc(OCc2c(C(=O)O)sc3cccc(Cl)c23)cn1 [Example 46, 3-(((6-Carbamoylpyridin-3-yl)oxy)methyl)-4-chlorobenzo[b]thiophene-2-carboxylic acid]	7.26	1.77	< 4.30	< 4.30	5.01	
Nc1noc2cc(OCc3c(C(=O)O)sc4cccc(Cl)c34)ccc12 [Example 48, 3-(((3-Aminobenzo[d]isoxazol-6-yl)oxy)methyl)-4-chlorobenzo[b]thiophene-2-carboxylic acid]	1.92	-4.63	< 4.30	< 4.30	4.79	
NC(=O)c1ccc(OCc2c(C(=O)O)sc3cccc(F)c23)cc1Cl [Example 50, 3-((4-Carbamoyl-3-chlorophenoxy)methyl)-4-fluorobenzo[b]thiophene-2-carboxylic acid]	5.11	0.02	< 4.30	< 4.30	4.68	
NC(=O)c1ccc(OCc2c(C(=O)O)sc3cccc(F)c23)cc1C(F)(F)F [Example 52, 3-((4-Carbamoyl-3-(trifluoromethyl)phenoxy)methyl)-4-fluorobenzo[b]thiophene-2-carboxylic acid]	−1.22	-2.15	< 4.30	< 4.30	3.59	
N#Cc1cccc2sc(C(=O)O)c(COc3ccc(C(N)=O)cc3)c12 [Example 63, 3-((4-Carbamoylphenoxy)methyl)-4-cyanobenzo[b]thiophene-2-carboxylic acid]	8.07	1.88			5.04	
COc1cc(C(N)=O)cc(C)c1OCc1c(C(=O)O)sc2cccc(Cl)c12 [Example 73, 3-((4-carbamoyl-2-methoxy-6-methylphenoxy)methyl)-4-chlorobenzo[b]thiophene-2-carboxylic acid]	1.79	-1.03			4.17	
